From ChEMBL document CHEMBL1201862, “PubChem BioAssay data set” (2004)
The source made the active and inactive calls.

Assays:
[1] = target: Neuropeptides B/W receptor type 1 (Homo sapiens, UniProt P48145); assay: Fluorescence-based dose response cell-based high throughput screening assay to identify antagonists of the G-protein coupled receptor 7 (GPR7). [Related pubchem assays: 1952 (Screening assay (GPR7 antagonists).), 1880 (Summary AID.)]; format: functional
[2] = target: Melanin-concentrating hormone receptor 1 (Homo sapiens, UniProt Q99705); assay: Fluorescence-based counterscreen for antagonists of the G-protein coupled receptor 7 (GPR7): cell-based high throughput dose response assay to identify antagonists of the melanin-concentrating hormone receptor 1 (MCHR1).; format: functional
Sequence of Melanin-concentrating hormone receptor 1 (Q99705 whole entry): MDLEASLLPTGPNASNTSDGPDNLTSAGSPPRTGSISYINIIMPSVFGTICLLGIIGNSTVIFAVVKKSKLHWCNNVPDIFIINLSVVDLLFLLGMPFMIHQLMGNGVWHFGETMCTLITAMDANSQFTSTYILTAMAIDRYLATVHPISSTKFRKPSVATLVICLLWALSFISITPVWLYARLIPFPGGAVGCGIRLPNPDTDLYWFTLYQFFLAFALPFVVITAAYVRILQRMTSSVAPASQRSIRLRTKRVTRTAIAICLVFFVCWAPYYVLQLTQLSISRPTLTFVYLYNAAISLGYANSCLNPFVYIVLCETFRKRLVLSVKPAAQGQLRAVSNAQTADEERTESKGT

[3] = HPDE-C7 pancreatic duct cell viability loss – fluorescence, HTS (AID 430); format: functional, cell-based; details: Homo sapiens
[4] = viability loss of HPDE-C7K cells – cell-based, fluorescence, HTS, primary screen (AID 431); format: functional; details: Homo sapiens
[5] = luciferase reporter signal suppression in cells – H4 neuroglioma cells, luminescence, dose response (AID 1990); format: functional, cell-based
[6] = Luminescence Cell-Based Dose Response HTS to Identify Inhibitors of 5'UTR Stem-Loop Driven Prion Protein mRNA Translation in H4 Neuroglioblastoma Cells. [Related pubchem assays: 1827 (Project Summary), 1813 (Primary HTS)]; format: functional
[7] = alpha-synuclein stem-loop luciferase translation blockers – H4 neuroglioma cells, luminescence, confirmation (AID 1988); format: functional, cell-based
Mucolipin-3 [8] = target: T1, Mucolipin-3 (Homo sapiens, UniProt Q8TDD5); assay: Dose response cell-based high-throughput screening assay for agonists of the transient receptor potential channel ML3 (TRPML3). [Related pubchem assays: 1526, 1424, 1448 ]; format: functional
T1 sequence (Q8TDD5 whole entry): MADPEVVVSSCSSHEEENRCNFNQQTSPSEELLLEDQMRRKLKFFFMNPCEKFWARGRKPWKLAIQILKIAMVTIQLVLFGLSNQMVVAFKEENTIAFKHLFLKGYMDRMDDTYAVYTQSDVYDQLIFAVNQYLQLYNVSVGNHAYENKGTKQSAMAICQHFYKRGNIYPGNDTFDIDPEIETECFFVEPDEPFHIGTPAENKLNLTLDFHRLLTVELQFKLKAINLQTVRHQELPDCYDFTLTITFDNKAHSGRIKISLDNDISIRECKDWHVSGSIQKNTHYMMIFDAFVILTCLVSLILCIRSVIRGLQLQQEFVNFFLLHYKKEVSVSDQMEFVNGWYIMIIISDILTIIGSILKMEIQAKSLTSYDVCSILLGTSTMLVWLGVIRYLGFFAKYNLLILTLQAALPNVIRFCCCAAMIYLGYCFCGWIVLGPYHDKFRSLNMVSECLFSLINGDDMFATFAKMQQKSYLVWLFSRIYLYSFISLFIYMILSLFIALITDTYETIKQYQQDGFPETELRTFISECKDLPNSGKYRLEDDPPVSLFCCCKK

Ion channel NompC [9] = target: T2, Ion channel NompC (Danio rerio, UniProt Q7T1G6); assay: Fluorescence counterscreen assay for TRPML3 agonists: dose response cell-based high-throughput screening assay to identify agonists of the transient receptor potential channel N1 (TRPN1). [Related pubchem assays: 1526, 1424, 1448 ]; format: functional
T2 sequence (Q7T1G6 whole entry): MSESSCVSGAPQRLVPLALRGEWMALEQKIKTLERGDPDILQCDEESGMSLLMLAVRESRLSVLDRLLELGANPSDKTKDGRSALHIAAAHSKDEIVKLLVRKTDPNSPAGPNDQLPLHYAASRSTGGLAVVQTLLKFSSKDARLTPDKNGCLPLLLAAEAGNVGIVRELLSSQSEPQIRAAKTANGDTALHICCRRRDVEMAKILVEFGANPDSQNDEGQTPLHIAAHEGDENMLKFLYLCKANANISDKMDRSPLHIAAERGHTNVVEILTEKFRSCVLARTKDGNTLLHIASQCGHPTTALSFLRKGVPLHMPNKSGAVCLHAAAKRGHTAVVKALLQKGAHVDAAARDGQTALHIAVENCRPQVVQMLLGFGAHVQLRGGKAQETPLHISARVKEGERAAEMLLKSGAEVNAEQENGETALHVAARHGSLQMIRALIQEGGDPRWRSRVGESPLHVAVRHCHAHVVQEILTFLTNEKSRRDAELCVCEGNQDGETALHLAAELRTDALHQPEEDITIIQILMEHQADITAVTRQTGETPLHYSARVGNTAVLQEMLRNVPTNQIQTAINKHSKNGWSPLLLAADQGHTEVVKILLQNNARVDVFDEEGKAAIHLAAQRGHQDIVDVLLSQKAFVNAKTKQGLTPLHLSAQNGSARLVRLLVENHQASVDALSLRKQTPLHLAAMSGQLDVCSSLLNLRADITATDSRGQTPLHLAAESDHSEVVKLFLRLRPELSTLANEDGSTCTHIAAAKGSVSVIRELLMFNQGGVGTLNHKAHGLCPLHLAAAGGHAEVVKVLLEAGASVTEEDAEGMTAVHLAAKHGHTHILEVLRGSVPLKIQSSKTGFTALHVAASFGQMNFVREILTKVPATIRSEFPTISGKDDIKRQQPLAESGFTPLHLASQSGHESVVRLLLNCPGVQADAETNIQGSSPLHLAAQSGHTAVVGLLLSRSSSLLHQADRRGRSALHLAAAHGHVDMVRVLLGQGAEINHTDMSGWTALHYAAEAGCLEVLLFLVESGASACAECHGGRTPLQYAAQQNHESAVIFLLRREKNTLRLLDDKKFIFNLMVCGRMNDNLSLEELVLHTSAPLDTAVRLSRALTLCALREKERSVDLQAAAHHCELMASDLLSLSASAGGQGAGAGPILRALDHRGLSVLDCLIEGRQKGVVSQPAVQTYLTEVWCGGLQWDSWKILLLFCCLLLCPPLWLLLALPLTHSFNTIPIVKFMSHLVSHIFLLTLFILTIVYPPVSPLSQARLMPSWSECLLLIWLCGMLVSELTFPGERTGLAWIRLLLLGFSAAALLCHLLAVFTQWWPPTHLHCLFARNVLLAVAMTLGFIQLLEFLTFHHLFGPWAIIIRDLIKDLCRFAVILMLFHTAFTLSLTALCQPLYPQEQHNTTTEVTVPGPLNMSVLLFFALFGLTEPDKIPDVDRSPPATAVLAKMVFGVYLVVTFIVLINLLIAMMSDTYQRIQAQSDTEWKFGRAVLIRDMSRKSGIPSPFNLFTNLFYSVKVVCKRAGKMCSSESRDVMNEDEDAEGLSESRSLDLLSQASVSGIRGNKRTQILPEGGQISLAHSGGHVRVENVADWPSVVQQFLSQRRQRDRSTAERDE

Mucolipin-3 [10] = target: T1, Mucolipin-3; assay: activators of mucolipin-3 and mucolipin-2 – cell-based, patch clamp, Fura-2 profiling panel, panel member TRPML3 Dose Response (AID 2116)
Ion channel NompC [11] = target: T2, Ion channel NompC; assay: activators of mucolipin-3 and mucolipin-2 – cell-based, […], Fura-2 profiling panel, panel member TRPN1 Dose Response (AID 2116)
[12] = HEK-293T viability loss after treatment – luminescence, T-cell screen hits, cytotoxicity control for TCR NF-kB inhibitor project, dose response (AID 489026); format: functional, cell-based;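 also: cells exposed to compound about 14 hours before the viability readout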
HeLa = assay: viability loss in HeLa cells – cell-based, 24 h, cherry-picked samples, cytotoxicity control, dose response (AID 504726); format: functional; details: Homo sapiens;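 also: potency for cytotoxicity as loss of luminescence signal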
ORF 73 = ORF 73 (Human herpesvirus 8, UniProt O40947); assay: KSHV LANA DNA-binding disruption – biochemical, fluorescence polarization, cherry-picked samples, dose response (AID 504725); set-up: species or system Human gammaherpesvirus 8;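 also: fluorescence polarization of a labeled DNA duplex reporting LANA DNA binding; potency is for inhibitors that block LANA binding to the DNA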
Keap1/Nrf2 = Keap1/Nrf2 (Homo sapiens, UniProt Q14145); assay: disruptors of Keap1 binding to Nrf2 peptide – biochemical, fluorescence polarization, cherry-picked samples, dose response (AID 588683)
Sequence of Keap1/Nrf2 (Q16236 whole entry): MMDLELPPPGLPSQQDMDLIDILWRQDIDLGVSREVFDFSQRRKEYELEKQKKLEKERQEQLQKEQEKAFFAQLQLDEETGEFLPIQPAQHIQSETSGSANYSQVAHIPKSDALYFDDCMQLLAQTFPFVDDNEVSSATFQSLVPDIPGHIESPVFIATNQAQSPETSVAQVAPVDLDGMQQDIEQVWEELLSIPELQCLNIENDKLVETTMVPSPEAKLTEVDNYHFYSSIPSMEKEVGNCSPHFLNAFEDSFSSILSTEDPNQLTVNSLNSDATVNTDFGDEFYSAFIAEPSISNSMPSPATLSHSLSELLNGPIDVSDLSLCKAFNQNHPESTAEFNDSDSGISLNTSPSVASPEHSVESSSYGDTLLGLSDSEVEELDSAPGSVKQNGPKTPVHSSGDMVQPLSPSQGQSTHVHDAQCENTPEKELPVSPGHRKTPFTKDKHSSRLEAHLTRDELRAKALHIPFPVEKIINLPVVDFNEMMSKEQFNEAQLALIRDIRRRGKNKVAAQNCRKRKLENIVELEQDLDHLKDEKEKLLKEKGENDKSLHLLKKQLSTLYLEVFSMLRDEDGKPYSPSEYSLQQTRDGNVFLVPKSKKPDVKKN
Sequence of Keap1/Nrf2 (Q14145 whole entry): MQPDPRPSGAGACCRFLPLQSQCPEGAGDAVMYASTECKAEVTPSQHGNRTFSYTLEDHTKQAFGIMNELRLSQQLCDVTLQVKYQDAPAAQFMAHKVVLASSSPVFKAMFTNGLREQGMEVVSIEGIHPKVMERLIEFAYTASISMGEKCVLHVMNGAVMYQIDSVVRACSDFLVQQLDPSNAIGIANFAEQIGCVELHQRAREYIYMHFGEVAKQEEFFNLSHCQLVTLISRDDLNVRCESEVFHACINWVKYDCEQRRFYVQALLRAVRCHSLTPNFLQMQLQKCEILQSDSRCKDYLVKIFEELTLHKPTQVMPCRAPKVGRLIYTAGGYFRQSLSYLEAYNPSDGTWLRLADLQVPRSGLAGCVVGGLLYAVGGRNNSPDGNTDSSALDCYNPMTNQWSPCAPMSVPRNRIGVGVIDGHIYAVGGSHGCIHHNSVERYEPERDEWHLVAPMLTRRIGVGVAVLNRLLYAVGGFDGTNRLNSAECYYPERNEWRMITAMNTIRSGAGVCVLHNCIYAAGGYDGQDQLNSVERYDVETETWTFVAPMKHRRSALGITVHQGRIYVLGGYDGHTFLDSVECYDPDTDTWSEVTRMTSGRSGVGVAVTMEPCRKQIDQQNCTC

[13] = target: T3, Eukaryotic translation initiation factor 2-alpha kinase 3 (Homo sapiens, UniProt Q9NZJ5); assay: Dose response cell-based high-throughput screening assay to measure PERK inhibition. [Related pubchem assays: 1416 ]; format: functional
T3 sequence (Q9NZJ5 whole entry): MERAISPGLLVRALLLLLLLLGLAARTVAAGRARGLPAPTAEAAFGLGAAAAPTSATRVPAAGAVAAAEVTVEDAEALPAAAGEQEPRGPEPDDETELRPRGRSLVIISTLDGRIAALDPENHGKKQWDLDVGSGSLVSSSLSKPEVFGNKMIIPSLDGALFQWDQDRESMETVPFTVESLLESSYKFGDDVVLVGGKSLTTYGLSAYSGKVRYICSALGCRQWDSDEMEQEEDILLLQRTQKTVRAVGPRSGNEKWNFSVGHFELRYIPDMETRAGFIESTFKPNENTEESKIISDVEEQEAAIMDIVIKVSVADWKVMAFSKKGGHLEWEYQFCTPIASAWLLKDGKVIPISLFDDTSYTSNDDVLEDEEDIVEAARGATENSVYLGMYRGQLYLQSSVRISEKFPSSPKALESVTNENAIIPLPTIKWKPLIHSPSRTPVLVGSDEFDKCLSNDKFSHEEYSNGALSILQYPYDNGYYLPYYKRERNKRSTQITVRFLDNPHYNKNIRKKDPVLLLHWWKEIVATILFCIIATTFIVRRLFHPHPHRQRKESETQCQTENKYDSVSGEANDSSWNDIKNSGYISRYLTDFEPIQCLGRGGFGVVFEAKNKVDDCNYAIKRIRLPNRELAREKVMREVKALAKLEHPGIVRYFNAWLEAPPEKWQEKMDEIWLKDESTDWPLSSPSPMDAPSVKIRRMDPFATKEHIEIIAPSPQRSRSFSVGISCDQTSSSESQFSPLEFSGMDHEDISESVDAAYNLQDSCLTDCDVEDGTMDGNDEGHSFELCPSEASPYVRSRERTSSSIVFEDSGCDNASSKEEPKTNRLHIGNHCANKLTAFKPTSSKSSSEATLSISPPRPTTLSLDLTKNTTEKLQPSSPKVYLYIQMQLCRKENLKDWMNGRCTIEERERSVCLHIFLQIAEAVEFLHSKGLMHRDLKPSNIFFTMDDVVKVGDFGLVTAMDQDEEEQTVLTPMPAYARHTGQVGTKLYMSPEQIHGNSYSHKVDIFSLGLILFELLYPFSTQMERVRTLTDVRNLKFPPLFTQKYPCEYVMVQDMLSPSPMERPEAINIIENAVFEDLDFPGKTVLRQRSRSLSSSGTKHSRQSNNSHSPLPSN

[14] = target: T3, Eukaryotic translation initiation factor 2-alpha kinase 3; assay: Counterscreen assay for PERK inhibitors: Dose response cell-based high throughput screening assay to measure inhibition of PERK at 6 hours. [Related pubchem assays: 1522, 1416 ]; format: functional
[15] = Trypanosoma cruzi growth suppression in host cells – NIH3T3 host cells, beta-gal luminescence, confirmation (AID 2044); format: functional, cell-based;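 also: intracellular parasites grown in NIH/3T3 mouse fibroblasts as host cells; luminescent beta-galactosidase reporter signal from transgenic T. cruzi replicating inside host cells; inhibitors lower the luminescence signal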
[16] = NIH3T3 cell viability loss – ATP luminescence, mouse fibroblasts, counter-screen, dose response (AID 2010); format: functional, cell-based;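 also: cells exposed to compound for about 90 hours before reading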
[17] = THP-1 cell cytotoxicity, dose response, cytotoxicity control for non-replicating M. tuberculosis project (AID 489025); format: functional
[18] = HepG2 cell cytotoxicity, dose response, cytotoxicity control for non-replicating M. tuberculosis project (AID 489018); format: functional; details: Mycobacterium tuberculosis
[19] = Vero E6 cell cytotoxicity, dose response, cytotoxicity control for non-replicating M. tuberculosis project, secondary assay (AID 492998); format: functional, VeroE6; details: Vero C1008
cells [20] = format: functional
Vero [21] = assay: Vero 76 cell viability after compound exposure – Vero 76 cells, synthesized analogs, cytotoxicity control for West Nile virus antiviral project, SAR follow-up (AID 2414); format: functional; details: Chlorocebus sabaeus
[22] = NIH-3T3 fibroblast cytotoxicity, dose response, cytotoxicity control, cell-based, fluorescence, Alamar Blue, secondary assay (AID 2327); format: functional;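 also: NIH-3T3 mouse fibroblasts cultured with fluconazole at 8 µg/mL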
Vero [23] = assay: Vero cell viability after compound exposure – synthesized analogs, set II, cytotoxicity control for West Nile virus antiviral project, SAR follow-up (AID 2402); format: functional; details: Chlorocebus sabaeus
[24] = system: Streptococcus sp. 'group A'; assay: Streptococcus pyogenes SK(-)GAS viability under kanamycin – luminescence, BacTiterGlo, confirmation, counter-screen for streptokinase expression inhibitor project, dose response (AID 1900); format: functional, organism-based
BJ [25] = assay: BJ-TERT fibroblast viability loss – cell-based, RAS-independent, luminescence, dose response (AID 1933); format: functional; details: Homo sapiens
Vero [26] = assay: host cell viability loss, Vero E6 – synthesized analogs, cytotoxicity control for West Nile virus antiviral project, SAR follow-up (AID 2244); format: functional; details: Chlorocebus sabaeus
cells [27] = format: functional, cell-based
[28] = A Cell Based Assay for the Identification of Probe candidate Compounds with Anti- Venezuelan Equine Encephalitis virus. [Related pubchem assays: 2409, 2419, 1621, 2238, 2405, 2024, 2065, 2402, 2414, 1635, 1650, 2244 ]; format: functional
BJ [29] = assay: cells; format: functional, cell-based; details: Homo sapiens
[30] = fluconazole-exposed Candida albicans growth modulators – fluorescence, retest, confirmation (AID 2467); format: functional, cell-based
cells [31] = format: functional, cell-based; remark: listed apart in the source
BJ [32] = assay: BJ-TERT-LT-ST fibroblast viability loss – cell-based, RAS-independent, luminescence, dose response (AID 1935); format: functional; details: Homo sapiens;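 also: BJ fibroblasts immortalized with TERT plus LT and ST oncogenes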
[33] = DRD fibroblast viability loss – cell-based, non-viral oncogenic, luminescence, dose response (AID 1934); format: functional; details: Homo sapiens
Streptococcus = assay: GAS UMAA2166 growth inhibition – luminescence, BacTiterGlo, counter-screen for streptokinase expression inhibitor project, dose response (AID 1915); format: functional, organism-based;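 also: potency for reduction of bacterial viability or growth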
INS1 = assay: INS-1E survival protection against cytokine death – cell-based, luminescence, retest, dose response (AID 449756); format: functional; details: Rattus norvegicus;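 also: cell death triggered by IL-1 beta plus TNF-alpha plus IFN-gamma mixture; protective hits raise ATP signal compared with cytokine alone wells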
Vero [34] = assay: cells; format: functional; details: Chlorocebus sabaeus
[35] = reduction of Shn3 3'UTR-driven luciferase in osteoblasts – cell-based, Clone20 osteoblasts, firefly luciferase, cherry-picked, dose response (AID 624132); format: functional;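 also: firefly luciferase luminescence from reporter carrying the Shn3 3'UTR in osteoblasts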
[36] = loss of viability in HepG2 cells – cell-based, CellTiter-Glo, cherry-picked, cytotoxicity control for Shn3 inhibitor project, dose response (AID 624134); format: functional
[37] = non-specific 3'UTR reporter inhibition in Clone20-Shn3RL – cell-based, Renilla luciferase, cherry-picked, counter-screen for Shn3 inhibitor project, dose response (AID 624133); format: functional

Sequence of Neuropeptides B/W receptor type 1 (P48145 whole entry): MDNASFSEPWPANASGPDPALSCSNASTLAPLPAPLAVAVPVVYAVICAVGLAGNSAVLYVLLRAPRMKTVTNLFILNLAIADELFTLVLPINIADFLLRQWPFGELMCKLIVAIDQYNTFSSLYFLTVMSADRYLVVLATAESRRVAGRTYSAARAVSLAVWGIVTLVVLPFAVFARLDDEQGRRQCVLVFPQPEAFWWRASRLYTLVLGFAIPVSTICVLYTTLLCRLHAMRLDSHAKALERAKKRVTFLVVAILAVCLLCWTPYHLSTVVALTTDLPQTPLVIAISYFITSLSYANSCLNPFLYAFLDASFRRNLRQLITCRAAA

**Q.** For `CCc1ccccc1NC(=O)CN1C(=O)C2CCCN2c2ncc(Cl)cc21` (configuration not stated), which IC50 [1] is on record?
**A.** > 43.8 µM (not active)

**Q.** What about the IC50 [2] of the same compound?
**A.** > 43.8 µM (not active)

**Q.** And the EC50 [3]?
**A.** > 20 µM (not active)

**Q.** What about the EC50 [4] of the same compound?
**A.** > 20 µM (not active)

**Q.** For `Cc1ccc(S(=O)(=O)Nc2ccccc2-c2ccccc2)cc1`, which EC50 [5] is on record?
**A.** > 120 µM (not active)

**Q.** And the EC50 [6]?
**A.** > 120 µM (not active)

**Q.** What about the EC50 [7] of the same compound?
**A.** 11.2 µM (active)

**Q.** What about the EC50 (Mucolipin-3 [8]) of the same compound?
**A.** 1.59 µM (active)

**Q.** And the EC50 (Ion channel NompC [9])?
**A.** > 29.9 µM (not active)

**Q.** What about the EC50 (Mucolipin-3 [10]) of the same compound?
**A.** 2.14 µM (active)

**Q.** What about the EC50 (Ion channel NompC [11]) of the same compound?
**A.** > 29.9 µM (inactive)

**Q.** And the IC50 [12]?
**A.** 79.9 µM (inactive)

**Q.** Which AC50 (HeLa) does the source give for `Cc1cccc(N2C(=O)c3cccc4c(N(C)CCO)ccc(c34)C2=O)c1` here?
**A.** 324 µM (active)

**Q.** And the AC50 (ORF 73)?
**A.** 204 µM (active)

**Q.** What about the AC50 (Keap1/Nrf2) of the same compound?
**A.** 22.6 µM (active)

**Q.** For `COC(=O)c1ccc(OCCOc2ccc(C(=O)OC)cc2)cc1`, which EC50 [13] is on record?
**A.** > 55.7 µM (not active)

**Q.** What about the EC50 [14] of the same compound?
**A.** > 55.7 µM (not active)

**Q.** Which results are given for `CC(=O)Nc1nc2ccccc2n1Cc1ccc(C)cc1`?
**A.** EC50 [15]: 3.92 µM (active); EC50 [16]: 7.78 µM (active); CC50 [17]: > 40 µM (active); CC50 [18]: > 20 µM (active); CC50 [19]: > 20 µM (active); IC50 (cells [20]): 2.73 µM (active)

**Q.** With `Oc1ccccc1C(Nc1nccs1)c1ccc2cccnc2c1O` (configuration not stated) as the compound, how does the CC50 (Vero [21]) read?
**A.** 21.6 µM (active)

**Q.** What about the EC50 [22] of the same compound?
**A.** 6.03 µM (active)

**Q.** And the CC50 (Vero [23])?
**A.** 7.2 µM (active)

**Q.** And the EC50 [5]?
**A.** 11.9 µM (active)

**Q.** And the EC50 [24]?
**A.** 2.3 µM (active)

**Q.** What about the EC50 (BJ [25]) of the same compound?
**A.** 8.13 µM (inconclusive)

**Q.** And the CC50 (Vero [26])?
**A.** 8 µM (active)

**Q.** And the EC50 (cells [27])?
**A.** 12.5 µM (active)

**Q.** And the IC50 [28]?
**A.** 20.9 µM (active)

**Q.** What about the EC50 [6] of the same compound?
**A.** 8.46 µM (active)

**Q.** What about the EC50 [7] of the same compound?
**A.** 9.59 µM (active)

**Q.** What about the EC50 (BJ [29]) of the same compound?
**A.** 13.9 µM (active)

**Q.** And the EC50 [30]?
**A.** 1.4 µM (active)

**Q.** What about the EC50 [15] of the same compound?
**A.** 0.832 µM (active)

**Q.** And the EC50 (cells [31])?
**A.** > 350 µM (not active)

**Q.** What about the EC50 [16] of the same compound?
**A.** 9.11 µM (active)

**Q.** What about the EC50 (BJ [32]) of the same compound?
**A.** 9.11 µM (active)

**Q.** What about the EC50 [33] of the same compound?
**A.** 10.7 µM (active)

**Q.** What about the EC50 (Streptococcus) of the same compound?
**A.** 6.55 µM (active)

**Q.** What about the AC50 (INS1) of the same compound?
**A.** 1.95 µM (active)

**Q.** What about the CC50 (Vero [34]) of the same compound?
**A.** 10.3 µM (active)

**Q.** What about the AC50 [35] of the same compound?
**A.** 1.13 µM (active)

**Q.** What about the AC50 [36] of the same compound?
**A.** 6.74 µM (active)

**Q.** What about the AC50 [37] of the same compound?
**A.** 2.47 µM (active)
